# From paper PMC4861708 (Frontiers in Cell and Developmental Biology, 2016)
# Where a SMILES comes first, the peptide text is derived from it. [ ]: non-standard residue; d: D form. The star is where a group is joined. Orn(α-tetramethylguanidino) = CN(C)C(=N[C@@H](CCCN)C(=O)*)N(C)C; Orn = NCCC[C@H](N)C(=O)O
# Tests used:
# [1] = system: P. aeruginosa DSM 1117 (ATCC 27853); assay type: cell-based, Pseudomonas aeruginosa; settings: DSM 1117, 24 h
# Method: (§1) MICs of P. aeruginosa strains DSM 1117 (ATCC 27853), DSM 3227 (ATCC 19429), and DSM 9644 were determined in a microdilution broth assay using 50 or 100% MHB (11.5 and 23 g/L MHB, respectively) whereas MICs of E. coli DSM 1103 (ATCC 25922) and K. pneumoniae DSM 681 (ATCC 10031) were determined in TSB (30 g/L TSB). Peptides (1 g/L in water) were serially two-fold diluted in a 96-well microtiter plate (PS, sterile, flat bottom) in 50 μL of the corresponding medium to final concentrations of 512–4 μg/mL. Bacteria were grown in nutrient broth overnight and diluted to a cell concentration of 1.5 × 10^7 cells/mL in the corresponding medium. Cell densities were determined by using the McFarland standard as reference. An aliquot (50 μL) of the cell culture was added to each well and incubated (37°C, 24 h). The OD595 was determined in a SpectraMax 340PC (Molecular Devices, Sunnyvale, USA). Additionally, MIC values were also determined for high bacteria densities (5 × 10^8 cells/mL) corresponding to the conditions used for TEM, as described above.
# [2] = system: E. coli DSM 1103 (ATCC 25922); assay type: cell-based, Escherichia coli; settings: DSM 1103, 24 h
# Method: as §1
# [3] = system: K. pneumoniae DSM 681 (ATCC 10031); assay type: cell-based, Klebsiella pneumoniae; settings: DSM 681, 24 h
# Method: as §1
# P. aeruginosa elastase = target: T1, P. aeruginosa elastase (Pseudomonas aeruginosa, UniProt P14756); assay: Elastase assay (proteolytic stability); assay type: in vitro ADME; settings: after 30 min and all later time points, elastase 12 units/mL, pH 8.3, 37°C
# T1 construct: purchased Merck (Darmstadt, Germany)
# T1 sequence (P14756 198-498): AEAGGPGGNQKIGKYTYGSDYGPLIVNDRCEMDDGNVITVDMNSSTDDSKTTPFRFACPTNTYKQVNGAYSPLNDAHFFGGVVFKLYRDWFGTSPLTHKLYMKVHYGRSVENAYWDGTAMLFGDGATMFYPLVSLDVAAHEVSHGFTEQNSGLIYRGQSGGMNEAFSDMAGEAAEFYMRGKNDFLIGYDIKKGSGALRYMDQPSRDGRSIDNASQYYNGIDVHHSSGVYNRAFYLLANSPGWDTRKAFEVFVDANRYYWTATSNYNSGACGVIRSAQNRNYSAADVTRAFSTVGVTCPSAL
# Method: A stock solution of P. aeruginosa elastase (0.26 U/μL) was prepared in Tris-HCl (5 mmol/L, pH 8.3) and stored at −80°C. Peptides (0.5 g/L in 5 mmol/L Tris-HCl, pH 8.3) were incubated with elastase (0.012 U/μL) at 37°C under constant shaking (450 rpm) for 0, 0.5, 2, 4, and 6 h. Aliquots (10.5 μL) were precipitated with a mixture of acetonitrile and ethanol (1:1 v/v) containing 0.1% TFA (21 μL), centrifuged, the supernatant transferred into a new tube, and dried in vacuum. Samples were dissolved in aqueous acetonitrile (3% v/v) containing TFA (0.1% v/v) and analyzed by RP-HPLC using the conditions described above.
# P. aeruginosa DSM 1117 = assay: Transmission electron microscopy, morphological changes; assay type: cell-based, Pseudomonas aeruginosa; settings: 1 h
# Method: Peptide-bacteria mixtures were fixed (2% glutaraldehyde, 5 mmol/L CaCl2, 10 mmol/L MgCl2 in 0.1 mol/L sodium cacodylate buffer, pH 7.4) overnight at 4°C. […] Samples were rinsed with distilled water (5 × 10 min), incubated with aqueous uranylacetate (0.5% w/v) for 1 h at 4°C, washed with distilled water (3 × 10 min), and embedded in Epon. The hardened blocks were sectioned (50 nm) on a UCT ultramicrotome (Leica, Vienna, Austria), stained with uranyl acetate and lead citrate on an AC20 system (Leica), and visualized at a Tecnai 12 electron microscope (FEI, Eindhoven, The Netherlands) at 80 kV. Morphological effects were quantified on average for 25 cells per condition.
smiles,measurement,setting,value
"CC[C@H](C)[C@H](NC(=O)[C@H](CCCN)N=C(N(C)C)N(C)C)C(=O)N[C@@H](CCCN)C(=O)N[C@H](C(=O)N[C@@H](CCCN)C(=O)N[C@@H](CCCNC(=N)N)C(=O)N1CCC[C@H]1C(=O)N[C@H](C(=O)N[C@@H](Cc1ccc(O)cc1)C(=O)N[C@@H](CCCN)C(=O)N1CCC[C@H]1C(=O)N[C@@H](CCCNC(=N)N)C(=O)N1CCC[C@H]1C(=O)N[C@@H](CCCNC(=N)N)C(=O)N1CCC[C@H]1C(=O)N1CCC[C@H]1C(=O)N[C@@H](Cc1c[nH]cn1)C(=O)N1CCC[C@H]1C(=O)N[C@@H](CCCNC(=N)N)C(=O)N[C@@H](CC(C)C)C(=O)O)C(C)C)[C@@H](C)CC [Api795, gu-O(IO)2RPVYOPRPRPPHPRL-OH] ({Orn(α-tetramethylguanidino)}-I[Orn]I[Orn]RPVY[Orn]PRPRPPHPRL-OH)","MIC P. aeruginosa DSM 1117, high inoculum",[1],16 µg/mL
same,MIC E. coli ATCC 25922,[2],8 µg/mL
same,"MIC E. coli DSM 1103, high inoculum",[2],32 µg/mL
same,MIC K. pneumoniae DSM 681,[3],8 µg/mL
same,Peptide detected with elastase,P. aeruginosa elastase,92 ± 4%
same,Cells spongy,P. aeruginosa DSM 1117; 4 µg/mL,0%
same,"DNA/ribosomes relocalization: +++, extremely relocalized",P. aeruginosa DSM 1117; 4 µg/mL,0%
same,"DNA/ribosomes relocalization: ++, relocalized",P. aeruginosa DSM 1117; 4 µg/mL,23%
same,"DNA/ribosomes relocalization: +, starting",P. aeruginosa DSM 1117; 4 µg/mL,37%
same,"DNA/ribosomes relocalization: -, no",P. aeruginosa DSM 1117; 4 µg/mL,40%
same,"Membrane: b, broken",P. aeruginosa DSM 1117; 4 µg/mL,0%
same,"Membrane: i, intact",P. aeruginosa DSM 1117; 4 µg/mL,100%
same,"Membrane: r, ruptured",P. aeruginosa DSM 1117; 4 µg/mL,0%
same,"Ribosome clustering: +++, extremely clustered",P. aeruginosa DSM 1117; 4 µg/mL,0%
same,"Ribosome clustering: ++, clustered",P. aeruginosa DSM 1117; 4 µg/mL,0%
same,"Ribosome clustering: +, starting",P. aeruginosa DSM 1117; 4 µg/mL,70%
same,"Ribosome clustering: -, no",P. aeruginosa DSM 1117; 4 µg/mL,30%
same,Vesicle release,P. aeruginosa DSM 1117; 4 µg/mL,67%
same,"dissociated Fragments: ++, long and thin",P. aeruginosa DSM 1117; 4 µg/mL,3%
same,"dissociated Fragments: +, small and thin",P. aeruginosa DSM 1117; 4 µg/mL,3%
same,"dissociated Fragments: -, no",P. aeruginosa DSM 1117; 4 µg/mL,93%
same,"dissociated Fragments: LV, large vesicles",P. aeruginosa DSM 1117; 4 µg/mL,0%
same,Cells spongy,P. aeruginosa DSM 1117; 16 µg/mL,0%
same,"DNA/ribosomes relocalization: +++, extremely relocalized",P. aeruginosa DSM 1117; 16 µg/mL,0%
same,"DNA/ribosomes relocalization: ++, relocalized",P. aeruginosa DSM 1117; 16 µg/mL,10%
same,"DNA/ribosomes relocalization: +, starting",P. aeruginosa DSM 1117; 16 µg/mL,40%
same,"DNA/ribosomes relocalization: -, no",P. aeruginosa DSM 1117; 16 µg/mL,50%
same,"Membrane: b, broken",P. aeruginosa DSM 1117; 16 µg/mL,0%
same,"Membrane: i, intact",P. aeruginosa DSM 1117; 16 µg/mL,100%
same,"Membrane: r, ruptured",P. aeruginosa DSM 1117; 16 µg/mL,0%
same,"Ribosome clustering: +++, extremely clustered",P. aeruginosa DSM 1117; 16 µg/mL,0%
same,"Ribosome clustering: ++, clustered",P. aeruginosa DSM 1117; 16 µg/mL,0%
same,"Ribosome clustering: +, starting",P. aeruginosa DSM 1117; 16 µg/mL,30%
same,"Ribosome clustering: -, no",P. aeruginosa DSM 1117; 16 µg/mL,70%
same,"dissociated Fragments: ++, long and thin",P. aeruginosa DSM 1117; 16 µg/mL,0%
same,"dissociated Fragments: +, small and thin",P. aeruginosa DSM 1117; 16 µg/mL,0%
same,"dissociated Fragments: -, no",P. aeruginosa DSM 1117; 16 µg/mL,100%
same,"dissociated Fragments: LV, large vesicles",P. aeruginosa DSM 1117; 16 µg/mL,0%
same,Cells spongy,P. aeruginosa DSM 1117; 64 µg/mL,0%
same,"DNA/ribosomes relocalization: ++, relocalized",P. aeruginosa DSM 1117; 64 µg/mL,67%
same,"DNA/ribosomes relocalization: +, starting",P. aeruginosa DSM 1117; 64 µg/mL,10%
same,"DNA/ribosomes relocalization: -, no",P. aeruginosa DSM 1117; 64 µg/mL,10%
same,"Membrane: b, broken",P. aeruginosa DSM 1117; 64 µg/mL,10%
same,"Membrane: i, intact",P. aeruginosa DSM 1117; 64 µg/mL,90%
same,"Membrane: r, ruptured",P. aeruginosa DSM 1117; 64 µg/mL,3%
same,"Ribosome clustering: +++, extremely clustered",P. aeruginosa DSM 1117; 64 µg/mL,7%
same,"Ribosome clustering: ++, clustered",P. aeruginosa DSM 1117; 64 µg/mL,7%
same,"Ribosome clustering: +, starting",P. aeruginosa DSM 1117; 64 µg/mL,77%
same,"Ribosome clustering: -, no",P. aeruginosa DSM 1117; 64 µg/mL,10%
same,Vesicle release,P. aeruginosa DSM 1117; 64 µg/mL,50%
same,"dissociated Fragments: ++, long and thin",P. aeruginosa DSM 1117; 64 µg/mL,3%
same,"dissociated Fragments: +, small and thin",P. aeruginosa DSM 1117; 64 µg/mL,0%
same,"dissociated Fragments: -, no",P. aeruginosa DSM 1117; 64 µg/mL,97%
same,"dissociated Fragments: LV, large vesicles",P. aeruginosa DSM 1117; 64 µg/mL,0%
same,Cells spongy,P. aeruginosa DSM 1117; 512 µg/mL,10%
same,"DNA/ribosomes relocalization: +++, extremely relocalized",P. aeruginosa DSM 1117; 512 µg/mL,100%
same,"DNA/ribosomes relocalization: ++, relocalized",P. aeruginosa DSM 1117; 512 µg/mL,0%
same,"DNA/ribosomes relocalization: +, starting",P. aeruginosa DSM 1117; 512 µg/mL,0%
same,"DNA/ribosomes relocalization: -, no",P. aeruginosa DSM 1117; 512 µg/mL,0%
same,"Membrane: b, broken",P. aeruginosa DSM 1117; 512 µg/mL,80%
same,"Membrane: i, intact",P. aeruginosa DSM 1117; 512 µg/mL,20%
same,"Membrane: r, ruptured",P. aeruginosa DSM 1117; 512 µg/mL,63%
same,"Ribosome clustering: +++, extremely clustered",P. aeruginosa DSM 1117; 512 µg/mL,93%
same,"Ribosome clustering: ++, clustered",P. aeruginosa DSM 1117; 512 µg/mL,7%
same,"Ribosome clustering: +, starting",P. aeruginosa DSM 1117; 512 µg/mL,0%
same,"Ribosome clustering: -, no",P. aeruginosa DSM 1117; 512 µg/mL,0%
same,Vesicle release,P. aeruginosa DSM 1117; 512 µg/mL,7%
same,"dissociated Fragments: +, small and thin",P. aeruginosa DSM 1117; 512 µg/mL,0%
same,"dissociated Fragments: -, no",P. aeruginosa DSM 1117; 512 µg/mL,87%
same,"dissociated Fragments: LV, large vesicles",P. aeruginosa DSM 1117; 512 µg/mL,0%
same,"membranes ruptured, % of the cells",P. aeruginosa DSM 1117; 512 µg/mL,80%
same,"membranes ruptured, % of the cells",P. aeruginosa DSM 1117; 4 × MIC,10%
